Assay results taken from the SangsterLogP compilation.
Square brackets hold non-standard residues; d marks the D form. Peptide text beside a SMILES is read from it. NMeF = CN[CH](Cc1ccccc1)C(=O)O

How the values were obtained:
[1] = method code SF, from DOI: 10.1021/jm00262a020, PMID: 4716184
[2] = method code SF-RC, from DOI: 10.1023/a:1015867608405, PMID: 1614980; conditions: pH 7.4
[3] = method code SF-HPLC, from DOI: 10.1248/cpb.38.1906, PMID: 2268893; conditions: pH 6.9
[4] = method code SF-RC, from DOI: 10.1016/j.nucmedbio.2016.01.003, PMID: 27067043; conditions: pH 7.4
[5] = method code SF-HPLC, from Xiong, Ð. (2009). Apparent partiton coefficient of hawthorn leaf flavonoids in phospholipids complex. Chinese Traditional Patent Medicine, 31(7)1075-1078.
[6] = method code SF-HPLC, from DOI: 10.1002/jccs.199500138
[7] = method code SF-AS, from DOI: 10.1016/j.ejmech.2009.02.028, PMID: 19321234
[8] = method code SF-HPLC, from DOI: 10.1016/j.ejps.2006.07.007, PMID: 16997537; conditions: pH 7.4
[9] = method code SF-AS, from DOI: 10.1111/j.1476-5381.1987.tb08980.x, PMID: 3036289; conditions: pH 7.4
[10] = method code SF-RC, from DOI: 10.1021/jm00392a008, PMID: 3625705
[11] = not given; remark: listed apart in the source
[12] = method code SF-HPLC, from DOI: 10.1016/0378-5173(91)90200-8; conditions: pH 7.4
[13] = pH 6.5
[14] = method code SF, from DOI: 10.1021/jm00079a001, PMID: 1732531; conditions: pH 7.4
[15] = method code SF, from DOI: 10.1016/0006-2952(92)90292-q, PMID: 1371213; conditions: pH 7.4
[16] = method code SF-AS, from Zhang, L.; Fu, G.; Wan, Y. (2014). Determination of verbascoside and its oil-water partition coefficient by ultraviolet spectrophotometry. Shipin Anquan ZhiliangJjiance Xuebao, 5(2)528-532.
[17] = pH 6.5; remark: listed apart in the source
[18] = method code SF, from DOI: 10.1021/jm00088a010, PMID: 1350310
[19] = method code SF-AS, from DOI: 10.1021/ja00198a050
[20] = not given; remark: listed apart in the source
[21] = not given; remark: listed apart in the source
[22] = not given; remark: listed apart in the source
[23] = not given; remark: listed apart in the source
[24] = method code SF-HPLC, from DOI: 10.1002/jlac.1995199512306
[25] = not given; remark: listed apart in the source
[26] = not given; remark: listed apart in the source
[27] = not given; remark: listed apart in the source
[28] = not given; remark: listed apart in the source
[29] = method code SF-HPLC, from DOI: 10.1021/js9504200, PMID: 8742941; conditions: pH 7.4
[30] = method code SF-AS, from DOI: 10.1021/jm00371a014, PMID: 6716401; conditions: pH 7.4
[31] = method code SF, from DOI: 10.1021/jm00169a014, PMID: 2362268; conditions: pH 7.4
[32] = method code SF-AS, from DOI: 10.1016/j.ejmech.2010.02.047, PMID: 20227799; conditions: pH 7.4
[33] = method code SF-AS, from DOI: 10.1016/s0026-895x(25)13330-0, PMID: 3162758; conditions: pH 4.5

## CC[C@@H](C(=O)[C@@H](C)[C@@H](O)[C@H](C)CCc1ccc(C)c(O)c1C(=O)O)[C@H]1O[C@](CC)([C@H]2CC[C@](O)(CC)[C@H](C)O2)C[C@@H]1C
[1]
  logP: 2.85

## CC(=O)NC(Cc1ccccc1)C(=O)N(C)C(Cc1ccccc1)C(=O)N(C)C(Cc1ccccc1)C(N)=O (centres undefined) (Ac-Phe-[NMeF]-[NMeF]-NH2; configuration not given here)
[2]
  logD: 2.53

## CCOC(=O)OCCC(SC(=O)OCC)=C(C)N(C=O)CC1=C(C(=O)OCOC(=O)C(C)(C)C)N2C(=O)C(NC(=O)C(=NOC)c3csc(N)n3)C2SC1 (centres undefined)
[3]
  logD: 3.34

## C=CC(=O)NCCCC[C@H](NC(=O)Cc1ccccc1)C(=O)N1CCN(c2cccc(C)n2)CC1
[4]
  logD: 2.09

## CC(C)Cc1ccc(C(Nc2cccc(C(=O)c3cn(CCCC(=O)O)c4ccccc34)c2)c2ccc(CC(C)C)cc2)cc1
other
  logP: 3

## C[C@@H]1O[C@@H](O[C@@H]2[C@@H](O)[C@H](O)[C@@H](CO)O[C@H]2c2c(O)cc(O)c3c(=O)cc(-c4ccc(O)cc4)oc23)[C@H](O)[C@H](O)[C@H]1O
[5]
  logP: -0.92

## CC(=O)O[C@@H]1CC[C@]2(C)C3=CC[C@]4(C)[C@@H]([C@H](C)CC/C=C(\C)C(=O)O)C[C@@H](OC(C)=O)[C@@]4(C)C3=CC[C@H]2C1(C)C
[6]
  logP: 2.74

## CCCCCCCCCCCCCC(=O)NC(C(=O)Nc1ccn(C2OC(CO)C(O)C2O)c(=O)n1)c1ccc(O)cc1 (centres undefined)
[7]
  logP: 0.9

## CCN(CC)C(=O)COC(=O)C1OC(Oc2cc3oc(-c4ccc(O)cc4)cc(=O)c3c(O)c2O)C(O)C(O)C1O (centres undefined)
[8]
  logD: 1.48

## C[C@@H]1O[C@@H](O[C@H]2C[C@@H](O)[C@]3(CO)[C@H]4[C@H](O)C[C@]5(C)[C@@H]([C@@H]6COC(=O)C6)CC[C@]5(O)[C@@H]4CC[C@]3(O)C2)[C@H](O)[C@H](O)[C@H]1O
[9]
  logD: -0.7

## CC/C=C\C/C=C\C/C=C\CCCCCCCC(=O)OCC(COC(=O)CCCN)OC(=O)CCCN (centres undefined)
[10]
  logP: 0.33

## COc1cc(C)c(S(=O)(=O)NC(CC(=O)NC2OC(CO)C(O)C(O)C2NC(C)=O)C(=O)NC(Cc2ccc(C(=N)N)cc2)C(=O)N2CCCCC2)c(C)c1C (centres undefined)
[11]
  logP: -1.5

## CCC(C(=O)OCc1ccc(COC(=O)C(CC)C(COC(=O)C2CC2)Cc2cncn2C)cc1)C(COC(=O)C1CC1)Cc1cncn1C (centres undefined)
[12]
  logD: 4.2

## CCCCC(OC(Cc1ccccc1)C(=O)N1CCC(OCOC)CC1)C(=O)NC(CC1CCCCC1)C(O)CC(C(=O)NCc1nn[nH]n1)C(C)C (centres undefined)
[13]
  logD: 2.9

## C=CC[C@H](NC(=O)[C@@H](Cc1ccccc1)NS(=O)(=O)N1CCN(C)CC1)C(=O)NC(CC1CCCCC1)C(=O)C(F)(F)C(=O)NCCN1CCOCC1 (some centres undefined)
[14]
  logD: 2.73

## CN(CC(=O)N[C@@H]1CC[C@@]2(O)[C@H]3Cc4ccc(O)c5c4[C@@]2(CCN3CC2CC2)[C@H]1O5)c1ccc([N+](=O)[O-])c2nonc12
[15]
  logD: 1

## C[C@@H]1O[C@@H](OC2[C@@H](O)C(OCCc3ccc(O)c(O)c3)OC(CO)[C@H]2OC(=O)/C=C/c2ccc(O)c(O)c2)[C@H](O)C(O)C1O (some centres undefined)
[16]
  logP: -0.57

## CCN1CC(C(O)C(CC2CCCCC2)NC(=O)C(Cc2cc[nH]n2)NC(=O)C(CC(=O)N2CCOCC2)Cc2ccccc2)OC1=O (centres undefined)
[17]
  logD: 2.52

## O=C(COc1ccc(OCCNCC(O)COc2ccccc2)cc1)N1CCc2ccccc2C1 (centres undefined)
[18]
  logP: 3.6

## CC(C)(C)c1ccc2c(c1)OCCOCCOCCOCCOCCOCCOCCOCCOCCO2
[19]
  logP: 1.69

## CCCCCCCCc1ccc(OCC(=O)Cn2cc(C(C)=O)c3cc(C(=O)O)ccc32)cc1
[20]
  logP: 5.8

## Nc1cccc(CN2C(=O)N(c3cccc(C(=O)Nc4cnccn4)c3)C(Cc3ccccc3)C(O)C(O)C2Cc2ccccc2)c1 (centres undefined)
[21]
  logP: 3.77

## CCOc1ccc(N2CCN(CC(O)CC(Cc3ccccc3)C(=O)NC3c4ccccc4CC3O)C(C(=O)NC(C)(C)C)C2)cn1 (centres undefined)
[22]
  logP: 3.62

## CC(C)C[C@H](NC(=O)Cc1ccc(C(=O)O)c(OCCF)c1)c1ccccc1N1CCCCC1
[23]
  logP: 2.39

## Cc1cn(C2CC(N=[N+]=[N-])C(COP(=O)(OCc3ccc(Cl)cc3)OCC3OC(n4cc(C)c(=O)[nH]c4=O)CC3N=[N+]=[N-])O2)c(=O)[nH]c1=O (centres undefined)
[24]
  logP: 2.06

## COC(=O)CC(O)CC(O)C=Cn1c(C(C)C)nc(-c2cccc(Br)c2)c1-c1ccc(F)cc1 (centres undefined)
[25]
  logP: 2.8

## Cc1c(O)cccc1C(=O)N[C@@H](CSc1ccccc1)[C@H](O)CN1C[C@H]2CCCC[C@H]2C[C@H]1C(=O)NC(C)(C)C
[26]
  logP: 4

## O=C(CCCCCCCCCCn1ccnc1[N+](=O)[O-])Nc1ccc(-c2nc3ccccc3s2)cc1
[27]
  logP: 1.99

## CCCN(CCC)C(=O)Cc1c(-c2ccc(OC(=O)NCCc3ccc(O)c(O)c3)cc2)nc2c(Cl)cc(Cl)cn12
[28]
  logP: 4.79

## O=C(OCCCCCC1CCSS1)c1cc(=O)c2c(OCC(O)COc3cccc4oc(C(=O)OCCCCCC5CCSS5)cc(=O)c34)cccc2o1 (centres undefined)
[29]
  logD: 2.87

## COc1cccc2c1C(=O)c1c(O)c3c(c(O)c1C2=O)CC(O)(C(C)=O)CC3OC1CC(N2CCOCC2C#N)C(O)C(C)O1 (centres undefined)
[30]
  logD: 2.59

## C=C1[C@@H](C)[C@H]2[C@H](Cc3ccccc3)NC(=O)[C@]23OC(=O)/C=C\[C@H](O)CCC[C@@H](C)C/C=C/[C@H]3[C@@H]1O
[31]
  logD: 3.37

## COc1ccc(-c2oc3cc(C(C)=O)cc(OC)c3c(=O)c2-c2ccc(-c3ccccc3)cc2)cc1OC
[32]
  logD: 3.95

## COc1cc([C@@H]2c3cc4c(cc3[C@@H](O[C@@H]3O[C@@H]5CO[C@@H](c6cccs6)O[C@H]5[C@H](O)[C@H]3O)[C@H]3COC(=O)[C@H]23)OCO4)cc(OC)c1O
[33]
  logD: 1.8
